The METLIN SMRT retention time set (Domingo-Almenara et al. 2019)

Assay: gradient 5% acetonitrile 3 min, to 50% in 2 min, to 85% in 15 min, held 3 min, 100 µL/min
Conditions: column: Zorbax Extend-C18 2.1 x 50 mm; eluents: water / acetonitrile, 0.1% formic acid
Procedure, shortened: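 Retention times come from adduct peaks that were picked computationally and then checked by hand. The standards, pure and pooled in mixtures of ~100 molecules, were run on a Zorbax Extend-C18 column (2.1 × 50 mm, 1.8 μm) at 100 μL/min with water and acetonitrile, each with 0.1% formic acid. Detection was by quadrupole time-of-flight mass spectrometry in positive and negative ionization mode, with a dead volume of 40 μL and a dwell volume of 900 μL.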

Compound	RP-LC retention time [s]
O=C(C1CC1)N1CCc2sc(S(=O)(=O)NCc3cccc(Cl)c3)cc2C1	923
COC[C@@H]1CN(Cc2ccc3cc[nH]c3c2)C[C@H]1c1nc(C)no1	631
Cc1noc(-c2ccc(OC3CN(C(=O)Nc4cccc(F)c4)C3)cc2)n1	838
CCCNC(=O)CN1CCN(C(=O)c2sc3ncccc3c2-n2cccc2)CC1	620
Cc1nnc(-c2coc(S(=O)(=O)N3CCN(C4CCCCC4)CC3)c2)o1	615
COc1ccc(-c2nnc(-c3ccc(C)c(S(=O)(=O)N4CCCC4)c3)o2)cc1	1030
O=C([C@@H]1C[C@H](F)CN1S(=O)(=O)c1cc(F)cc(F)c1)N1CCCCC1	837
CCOC(=O)C1CCN(c2cc(C)nc3nc(-c4ccc(OC)cc4)nn23)CC1	881
CC(C)CNC(=O)N1CCCC(CCc2nnc(-c3cnccn3)o2)C1 (stereo not given)	697
CCOC(=O)C1CCCN(C(=O)c2cccc3c2SCCC3=O)C1 (stereo not given)	780
CC(=O)N1c2ccc(S(=O)(=O)N3CCCC3)cc2CC1C(=O)Nc1c(C)cc(C)cc1C (stereo not given)	876
Nc1cc(C2CCN(C(=O)c3nccc4ccccc34)CC2)no1	647
COc1ccc(C2C(C(=O)NCCCN3CCCCCC3)CCC(=O)N2c2ccc(OC)cc2)cc1 (stereo not given)	589
COc1ccc(-c2coc3cc(OCC(=O)O)ccc3c2=O)cc1OC	703
CCC(C)N(CC(=O)N1CCc2sccc2C1COc1ccc(Cl)cc1)C(=O)COC (stereo not given)	955
COC(=O)c1c(C)[nH]c(C(=O)N2CCCC(C(=O)NCc3ccc(OC)cc3)C2)c1C (stereo not given)	735
Cc1[nH]c(C)c(S(=O)(=O)N2CCC(C(=O)N3CCCCC3C)CC2)c1C(=O)N1CCCCC1 (stereo not given)	724
CN1CCc2c(n(CC(O)Cn3nnc4ccccc43)c3ccccc23)C1=O (stereo not given)	754
O=C(NCCc1cccs1)c1cc2n(n1)CCCN(Cc1ccc(F)cc1)C2=O	868
CC(=O)N1c2ccc(S(=O)(=O)N3CCCCC3)cc2CC1C(=O)Nc1ccc(C)cc1C (stereo not given)	868
COc1ccc(NC(=O)c2c(OC)cc(=O)n3c2CCCC3)c(OC)c1	877
CC(C)(C)NC(=O)C(=O)c1c(-c2ccccc2)cc2ccccn12	948

Compound	RP-LC retention time [s]
CCn1cnc(S(=O)(=O)N2CCC(C(=O)NC3CCCCC3)CC2)c1	686
CCCCN1C(=O)C(NC(=O)c2ccccc2OC)(C(F)(F)F)C(C(=O)OC)=C1C (stereo not given)	1070
Cc1ccc(-c2ocnc2C(=O)NCCCN2CCc3ccccc3C2)s1	727
Cc1nn(CC(=O)N2CCc3ccccc3C2)c(=O)c2nn(-c3ccccc3)c(C)c12	820
Cn1c(CN2CCN(C(=O)c3cccs3)CC2)nc2cc(C(=O)N3CCCC3)ccc21	597
Cc1ccccc1C(=O)N1C[C@@H](F)C[C@H]1C(=O)N1CCOCC1	620
Cc1nc(-c2cccc(NC(=O)c3ccc(N4CCCC4)nn3)c2)cs1	676
O=C(CN1CCCC1=O)NCc1ccccc1C(F)(F)F	680
CCOc1cccc(CN2C(=O)C3(CCOCC3)CC2c2nnnn2C(C)(C)C)c1 (stereo not given)	820
COc1ccc(-c2c(C(=O)O)nnn2-c2ccc3c(c2)OCO3)cc1	745
CC(=O)Nc1c(C)cc(OCC(=O)O)cc1C	649
CCN(CC)S(=O)(=O)c1ccc2c(c1)N(CC(=O)NCc1ccccc1C)C(=O)C1CCCCN21 (stereo not given)	1020
Cc1ccccc1Cn1nnc2cc(C(=O)N3CCN(c4ncccn4)CC3)ccc21	819
CCNC(=O)N1CC(Oc2ccc(-c3nc(C)no3)cc2)C1	688
Cc1cc(S(=O)(=O)NCC2(C)CCOCC2)ccc1F	840
COCCCn1c(=O)c2ccccc2n(Cc2nc(-c3cccc(Cl)c3)no2)c1=O	1100
CCc1ccc(CNC(=O)C2CCN(c3ncccc3S(=O)(=O)N3CCCCC3)CC2)cc1	1040
COc1cccc(CNC(=O)C2CCN(C(=O)C3Sc4ccccc4NC3=O)CC2)c1 (stereo not given)	725
CCSc1nnc(-c2nn(C)c3c2CN(S(=O)(=O)c2ccc(CC)cc2)CC3)n1CC	1030
O=C1COc2cc(S(=O)(=O)N3CCCC3C(=O)N3CCc4ccccc43)c(Cl)cc2N1 (stereo not given)	795
O=C(Nc1ccc(F)c(F)c1)c1cnc(-c2ccc(F)cc2)nc1-c1ccncc1	985
CO[C@@H]1[C@@H](OC(N)=O)[C@H](O)[C@H](Oc2ccc3c(O)c(NC(=O)c4ccc(O)c(CC=C(C)C)c4)c(=O)oc3c2C)OC1(C)C	979

Compound	RP-LC retention time [s]
CCCNC(=O)C1CCN(c2ccc(SCC(=O)Nc3ccc(F)cc3Cl)nn2)CC1	682
CCC(=O)N1CC(c2nc(-c3ccc(F)cc3)no2)C2(CCOCC2)C1 (stereo not given)	800
Cc1ccc(Cl)cc1NC(=O)c1cc2ccccc2cc1O	1180
O=C(NCc1cccnc1)C(CCO)Sc1nc2sc3c(c2c(=O)[nH]1)CCCC3 (stereo not given)	544
CC(C)c1ccc(S(=O)(=O)N2CCc3c(c(-c4nnc(-c5ccccc5)o4)nn3C)C2)cc1	1110
CC(C)Cn1c(=O)c(N2CCN(S(=O)(=O)Cc3ccccc3)CC2)nc2ccncc21	740
CCn1c(CNC(=O)C2CCC2)nc2c1CN(S(=O)(=O)c1ccc(C)cc1)CC2	649
O=C(Cn1nc(N2CCOCC2)c2ccccc2c1=O)Nc1cccc(Cl)c1	846
COc1ccc(C2CC(=O)N(c3ccc(F)c(F)c3)C(=O)C2)cc1OC	852
COC(=O)c1ccccc1NC(=O)Cn1ccn2nc(-c3ccccc3)c(CO)c2c1=O	884
O=C(c1[nH]c2ccccc2c1Sc1ccc(Cl)cc1)N1CCN(c2ccccn2)CC1	825
CN1C(=O)c2cccnc2Sc2cc(NC(=O)Cc3cccc(Cl)c3)ccc21	831
CC1CCCCN1CCNC(=O)CN1CCc2ccccc2C1C(=O)N1CCCCC1 (stereo not given)	617
CCOc1ccc(Cl)cc1S(=O)(=O)N1CCC(C(=O)Nc2ccccc2C(=O)OC)CC1	1150
CCOC(=O)C1=C(CN2CCN(C(C)CC)CC2)NC(=O)NC1c1ccccc1 (stereo not given)	625
CCC(=O)N1CCN(c2nc(C)cc(N3CCCC3)n2)CC1	604
Cc1ccc(C2c3[nH]c4ccccc4c3CCN2C(=O)C2CC2)cc1 (stereo not given)	1110
CNC(=O)c1n[nH]c2c1CCCCCC2	685
Cc1cc(C)c(-c2noc(C)n2)c(NC(=O)c2cccc(Cl)c2)n1	827
Cc1cc(C)cc(NC(=O)Cn2c(N3CCC(C)CC3)nc(C)cc2=O)c1	796
CCNC(=O)N1CCOc2ccc(N(C)C)cc2C1	548
